Data on seven compounds can be found in patent publication US5329012A, “Bis(acyloxmethyl)imidazole compounds” (The Research Foundation of State University of New York, priority 1987, dated 1994).

The series has as its system lymphocytic leukemia P-388. Briefly: P-388 lymphocytic leukemia test in mice (NCI Protocol 1.200). In kind it is in vivo, CDF1 female mice. To be noted: for Tox.Day Surv. (survivors/animals tested): day 5; for response vs control in vivo at 12.5 mg/kg / response vs control in vivo at 25 mg/kg / response vs control in vivo at 50 mg/kg / response vs control in vivo at 100 mg/kg / response vs control in vivo at 200 mg/kg / response vs control in vivo at 400 mg/kg: Mus musculus, P388, 120 h, read-out: % T/C (mean survival time). As for the experimental part:
Various bis(acyloxymethyl)imidazole derivatives prepared in accord with Examples I-XVIII and designated Samples A-J, were tested for anti-tumor activity in vivo using the lymphocytic leukemia P-388 test procedure in mice with Samples A and B representing controls. The test system was that employed by the National Cancer Institute (NCI) for the preliminary screening of anti-tumor agents, according to Protocol 1.200 (Cancer Chemo. Reports Part 3, Vol. 3, No. 2, page 9; 1972). In the study ascitic fluid containing 6×10^6 cells was implanted in the peritoneal cavity of CDF1 female mice. Each imidazole was given in a single injection, at four to six different dose levels (5-6 mice/dose level) daily for five (5) days beginning 24 hours after tumor innoculation. The control animals received saline. Test criteria was in accord with NCI protocol as follows: toxicity day evaluations were carried out on day 5 (number of survivors/number of animals tested); % T/C data was calculated through mean survival time [% T/C=(MST treated/MST control)x100, where MST=mean survival time]; BWD refers to the body weight difference (grams) of test animals compared to control animals; KE refers to the log of the tumor cell population at the end of treatment relative to tumor cell population before treatment.
Table I sets out the identification of the compounds corresponding to the samples used in this and further Examples. Table II sets out the results of the P-388 tests.

Where [1] appears, read: 12.5 mg/kg/inj, daily for 5 days.
Where [2] appears, read: 100 mg/kg/inj, daily for 5 days.
Where [3] appears, read: 200 mg/kg/inj, daily for 5 days.
The mark [4] stands for this setting: 400 mg/kg/inj, daily for 5 days.

Each structure is given as a SMILES string. Where two headings read alike, the source gives them in different places.

With `CNC(=O)OCc1ncn(-c2ccccc2)c1COC(=O)NC` [A, 1-phenyl-4,5-bis(N-methylcarbonyloxymethyl)imidazole, reference compound], the response vs control in vivo at 12.5 mg/kg is 99%, the response vs control in vivo at 25 mg/kg came out at 95%, the response vs control in vivo at 50 mg/kg stood at 101% and the response vs control in vivo at 100 mg/kg is 101%. Moreover, the response vs control in vivo at 200 mg/kg turned out to be 99%. Moreover, under setting [1], the “BWD (body weight difference vs control)” value is on record as -0.4 g, the “KE (log tumor cell population end vs before treatment)” value was -1.55 and the “Tox.Day Surv. (survivors/animals tested)” value was 5/5. Besides, for the setting “25 mg/kg/inj, daily for 5 days”, the “BWD (body weight difference vs control)” value was found to be 0.2 g, the “KE (log tumor cell population end vs before treatment)” value was -1.61 and the “Tox.Day Surv. (survivors/animals tested)” value is recorded as 5/5. In addition, where the note is “50 mg/kg/inj, daily for 5 days”, the “BWD (body weight difference vs control)” value was -0.8 g, the “KE (log tumor cell population end vs before treatment)” value is recorded as -1.52 and the “Tox.Day Surv. (survivors/animals tested)” value is on record as 5/5. Under setting [2], the “BWD (body weight difference vs control)” value is on record as -0.4 g, the “KE (log tumor cell population end vs before treatment)” value was -1.52 and the “Tox.Day Surv. (survivors/animals tested)” value was 5/5. Also, under setting [3], the “BWD (body weight difference vs control)” value is recorded as -1.2 g, the “KE (log tumor cell population end vs before treatment)” value is reported as -1.55 and the “Tox.Day Surv. (survivors/animals tested)” value is recorded as 5/5.

With `CSc1nc(COC(=O)NC(C)C)c(COC(=O)NC(C)C)n1C` [I, 1-methyl-2-methylthio-4,5-bis-[N-(2-propyl)carbonyloxymethyl)imidazole], under setting [1], the “BWD (body weight difference vs control)” value was determined as 2.6 g, the “KE (log tumor cell population end vs before treatment)” value was -1.40 and the response vs control in vivo at 12.5 mg/kg worked out at 113%. Under “25 mg/kg/inj, daily for 5 days”, the “BWD (body weight difference vs control)” value turned out to be 0.4 g, the “KE (log tumor cell population end vs before treatment)” value is given as -0.91 and the response vs control in vivo at 25 mg/kg was 125%. Also, for the setting “50 mg/kg/inj, daily for 5 days”, the “BWD (body weight difference vs control)” value was found to be 0.0 g, the “KE (log tumor cell population end vs before treatment)” value was -0.56 and the response vs control in vivo at 50 mg/kg was determined as 130%. Besides, under setting [2], the “BWD (body weight difference vs control)” value is -1.2 g, the “KE (log tumor cell population end vs before treatment)” value was 1.89 and the response vs control in vivo at 100 mg/kg is 163%. In addition, under setting [3], the “BWD (body weight difference vs control)” value is -1.8 g, the “KE (log tumor cell population end vs before treatment)” value amounted to 4.21 and the response vs control in vivo at 200 mg/kg came out at 184%. In addition, under setting [4], the “BWD (body weight difference vs control)” value is listed as -3.4 g, the “KE (log tumor cell population end vs before treatment)” value is “toxic” and the response vs control in vivo at 400 mg/kg stood at 70%.

Turning to `COc1nc(COC(=O)NC(C)C)c(COC(=O)NC(C)C)n1C` [J, 1-methyl-2-methoxy-4,5-bis-[N-(2-propyl)carbonyloxymethyl)imidazole], where the note is “25 mg/kg/inj, daily for 5 days”, the “BWD (body weight difference vs control)” value is recorded as -0.1 g, the “KE (log tumor cell population end vs before treatment)” value is on record as -0.60 and the response vs control in vivo at 25 mg/kg was determined as 130%. Under “50 mg/kg/inj, daily for 5 days”, the “BWD (body weight difference vs control)” value is recorded as -1.0 g, the “KE (log tumor cell population end vs before treatment)” value was determined as 0.54 and the response vs control in vivo at 50 mg/kg was 147%. In addition, under setting [2], the “BWD (body weight difference vs control)” value is given as -2.1 g, the “KE (log tumor cell population end vs before treatment)” value worked out at 1.87 and the response vs control in vivo at 100 mg/kg worked out at 166%. For the same compound, under setting [3], the “BWD (body weight difference vs control)” value is listed as -2.6 g, the “KE (log tumor cell population end vs before treatment)” value was found to be 3.41 and the response vs control in vivo at 200 mg/kg was determined as 189%. Further, under setting [4], the “BWD (body weight difference vs control)” value is listed as -4.2 g, the “KE (log tumor cell population end vs before treatment)” value was 3.88 and the response vs control in vivo at 400 mg/kg amounted to 196%.

For `CNC(=O)OCc1nc(SC)n(-c2ccccc2)c1COC(=O)NC` [C, 1-phenyl-2-methylthio-4,5-bis-(N-methylcarbonyloxymethyl)imidazole], the response vs control in vivo at 50 mg/kg was 141%, the response vs control in vivo at 100 mg/kg is 133% and the response vs control in vivo at 200 mg/kg was 156%. Besides, for the setting “50 mg/kg/inj, daily for 5 days”, the “BWD (body weight difference vs control)” value is -1.4 g, the “KE (log tumor cell population end vs before treatment)” value was found to be 0.60 and the “Tox.Day Surv. (survivors/animals tested)” value was 5/5. Also, under setting [2], the “BWD (body weight difference vs control)” value is -1.6 g, the “KE (log tumor cell population end vs before treatment)” value worked out at 0.17 and the “Tox.Day Surv. (survivors/animals tested)” value was 5/5. For the same compound, under setting [3], the “BWD (body weight difference vs control)” value is -3.0 g, the “KE (log tumor cell population end vs before treatment)” value stood at 1.46 and the “Tox.Day Surv. (survivors/animals tested)” value was 5/5. In addition, under setting [4], the “BWD (body weight difference vs control)” value is on record as -5.2 g, the “KE (log tumor cell population end vs before treatment)” value is listed as “toxic” and the “Tox.Day Surv. (survivors/animals tested)” value was 4/5.

On to `CNC(=O)OCc1nc(SC)n(Cc2ccccc2)c1COC(=O)NC` [E, 1-benzyl-2-methylthio-4,5-bis-(N-methylcarbonyloxymethyl)imidazole], for which the response vs control in vivo at 50 mg/kg amounted to 116%, the response vs control in vivo at 100 mg/kg was found to be 116%, the response vs control in vivo at 200 mg/kg stood at 129% and the response vs control in vivo at 400 mg/kg was 127%. Where the note is “50 mg/kg/inj, daily for 5 days”, the “BWD (body weight difference vs control)” value was determined as 0.9 g, the “KE (log tumor cell population end vs before treatment)” value is -1.19 and the “Tox.Day Surv. (survivors/animals tested)” value is on record as 6/6. Further, under setting [2], the “BWD (body weight difference vs control)” value stood at 0.4 g, the “KE (log tumor cell population end vs before treatment)” value is given as -1.19 and the “Tox.Day Surv. (survivors/animals tested)” value is reported as 6/6. Moreover, under setting [3], the “BWD (body weight difference vs control)” value was -0.4 g, the “KE (log tumor cell population end vs before treatment)” value was -0.44 and the “Tox.Day Surv. (survivors/animals tested)” value was 6/6. Besides, under setting [4], the “BWD (body weight difference vs control)” value was -1.2 g, the “KE (log tumor cell population end vs before treatment)” value is given as -0.71 and the “Tox.Day Surv. (survivors/animals tested)” value is 6/6.

Take `CSc1nc(COC(=O)NC(C)C)c(COC(=O)NC(C)C)n1Cc1ccccc1` [F, 1-benzyl-2-methylthio-4,5-bis-[N-(2-propyl)carbonyloxymethyl)imidazole]: under setting [1], the “BWD (body weight difference vs control)” value is reported as -0.2 g, the “KE (log tumor cell population end vs before treatment)” value is recorded as -1.64 and the response vs control in vivo at 12.5 mg/kg was 98%. For the same compound, under “25 mg/kg/inj, daily for 5 days”, the “BWD (body weight difference vs control)” value is listed as -1.5 g, the “KE (log tumor cell population end vs before treatment)” value was -1.59 and the response vs control in vivo at 25 mg/kg was determined as 101%. Besides, under “50 mg/kg/inj, daily for 5 days”, the “BWD (body weight difference vs control)” value is on record as -0.5 g, the “KE (log tumor cell population end vs before treatment)” value was -0.42 and the response vs control in vivo at 50 mg/kg amounted to 110%. Under setting [2], the “BWD (body weight difference vs control)” value is reported as -0.3 g, the “KE (log tumor cell population end vs before treatment)” value is reported as -0.39 and the response vs control in vivo at 100 mg/kg was determined as 111%. Further, under setting [3], the “BWD (body weight difference vs control)” value was -2.2 g, the “KE (log tumor cell population end vs before treatment)” value is on record as -0.32 and the response vs control in vivo at 200 mg/kg came to 116%. Under setting [4], the “BWD (body weight difference vs control)” value was -3.2 g and the “KE (log tumor cell population end vs before treatment)” value is listed as “toxic”.

With `CSc1nc(COC(=O)NC(C)C)c(COC(=O)NC(C)C)n1-c1ccccc1` [D, 1-phenyl-2-methylthio-4,5-bis-[N-(2-propyl)carbonyloxymethyl]imidazole], under setting [1], the “BWD (body weight difference vs control)” value is -0.2 g, the “KE (log tumor cell population end vs before treatment)” value is recorded as -1.42 and the response vs control in vivo at 12.5 mg/kg was 111%. For the same compound, under “25 mg/kg/inj, daily for 5 days”, the “BWD (body weight difference vs control)” value is 0.6 g and the response vs control in vivo at 25 mg/kg is 101%. For the same compound, under “50 mg/kg/inj, daily for 5 days”, the “BWD (body weight difference vs control)” value is listed as 0.3 g, the “KE (log tumor cell population end vs before treatment)” value was -1.64 and the response vs control in vivo at 50 mg/kg was 95%. For the same compound, under setting [2], the “BWD (body weight difference vs control)” value is listed as -2.0 g, the “KE (log tumor cell population end vs before treatment)” value is reported as -1.62 and the response vs control in vivo at 100 mg/kg was found to be 97%. Also, under setting [3], the “BWD (body weight difference vs control)” value is reported as -2.8 g, the “KE (log tumor cell population end vs before treatment)” value is listed as -1.64 and the response vs control in vivo at 200 mg/kg amounted to 90%. Under setting [4], the “BWD (body weight difference vs control)” value was -4.8 g, the “KE (log tumor cell population end vs before treatment)” value is on record as -1.52 and the response vs control in vivo at 400 mg/kg turned out to be 100%.
